Reference: patent publication US20230286958A1, “PLASMA KALLIKREIN INHIBITORS” (Merck Sharp & Dohme LLC, priority 2020, published 2023)

Assays:
Human plasma kallikrein = Human plasma kallikrein (Homo sapiens (Human), UniProt P03952); assay: Kallikrein Assay (fluorogenic substrate Acetyl-K-P-R-AFC); assay type: biochemical; conditions: Plasma Kallikrein (PKal)
In short: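 Ki is derived from IC50 with the Cheng-Prusoff equation, and IC50 from the inflection point of a four-parameter logistic curve. The rate of AFC release is read with 0.5 nM purified enzyme and […] substrate at room temperature or 37 °C.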

human Factor XIa = human Factor XIa (Homo sapiens (Human), UniProt P03951); assay: Factor XIa Assay (fluorogenic substrate GPR-AFC); assay type: biochemical; conditions: Factor XIa (FXIa)
human Factor XIa, sequence (P03951 388-625 limits assumed): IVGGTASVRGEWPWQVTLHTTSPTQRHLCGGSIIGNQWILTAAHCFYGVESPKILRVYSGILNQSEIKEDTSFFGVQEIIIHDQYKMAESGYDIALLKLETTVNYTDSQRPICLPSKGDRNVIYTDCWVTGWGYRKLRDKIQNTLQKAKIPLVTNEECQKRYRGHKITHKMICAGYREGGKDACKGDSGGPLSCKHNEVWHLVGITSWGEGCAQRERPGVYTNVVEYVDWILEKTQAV
human Factor XIa, sequence (P03951 19-387 partner limits assumed): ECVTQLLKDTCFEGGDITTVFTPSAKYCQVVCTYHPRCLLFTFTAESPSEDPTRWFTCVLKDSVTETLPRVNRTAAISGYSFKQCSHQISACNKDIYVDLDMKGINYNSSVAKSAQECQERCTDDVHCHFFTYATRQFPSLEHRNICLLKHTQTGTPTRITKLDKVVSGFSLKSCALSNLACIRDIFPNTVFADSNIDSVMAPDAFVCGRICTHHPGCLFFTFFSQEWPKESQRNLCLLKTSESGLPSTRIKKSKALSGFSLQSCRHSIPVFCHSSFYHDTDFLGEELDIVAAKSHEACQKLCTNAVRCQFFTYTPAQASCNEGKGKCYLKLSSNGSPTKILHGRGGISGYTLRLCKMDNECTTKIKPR

Human plasma kallikrein, sequence (P03952 391-638): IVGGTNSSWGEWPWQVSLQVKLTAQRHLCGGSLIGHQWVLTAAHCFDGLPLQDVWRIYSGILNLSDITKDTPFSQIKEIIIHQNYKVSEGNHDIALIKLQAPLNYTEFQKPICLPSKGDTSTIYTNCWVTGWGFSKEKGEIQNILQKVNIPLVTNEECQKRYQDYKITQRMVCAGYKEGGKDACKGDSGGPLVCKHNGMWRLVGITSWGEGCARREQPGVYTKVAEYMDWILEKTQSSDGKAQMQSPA
Human plasma kallikrein, sequence (P03952 20-390 partner): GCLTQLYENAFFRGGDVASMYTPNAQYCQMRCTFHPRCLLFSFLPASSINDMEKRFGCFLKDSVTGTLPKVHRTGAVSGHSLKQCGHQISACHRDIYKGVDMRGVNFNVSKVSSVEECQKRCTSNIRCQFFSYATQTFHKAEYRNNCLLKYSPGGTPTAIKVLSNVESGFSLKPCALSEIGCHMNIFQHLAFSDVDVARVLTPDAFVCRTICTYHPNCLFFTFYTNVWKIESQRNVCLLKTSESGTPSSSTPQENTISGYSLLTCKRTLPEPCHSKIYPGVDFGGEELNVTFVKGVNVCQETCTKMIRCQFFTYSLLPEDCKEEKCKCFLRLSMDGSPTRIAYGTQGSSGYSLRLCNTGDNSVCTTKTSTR

| IC50 (Human plasma kallikrein) [nM] | IC50 (human Factor XIa) [nM] | SMILES |
| --- | --- | --- |
| 2.2 | 733 | Cc1ncc(-c2c(C(F)F)ccc(Cl)c2F)nc1C(=O)Nc1cnn(C(C)c2cnc(N3C[C@H]4C[C@H]4C3=O)c3c2OCO3)c1 (single isomer, unassigned) [Example 253, 6-(3-Chloro-6-(difluoromethyl)-2-fluorophenyl)-3-methyl-N-(1-((S or R)-1-(4-((1R,5S)-2-oxo-3-azabicyclo[3.1.0]hexan-3-yl)-[1,3]dioxolo[4,5-c]pyridin-7-yl)ethyl)-IH-pyrazol-4-yl)pyrazine-2-carboxamide] |
| 1.4 | 157 | CC(O)c1ncc(-c2c(C(F)F)ccc(Cl)c2F)nc1C(=O)Nc1cnn(Cc2cnc(N3C[C@H]4C[C@H]4C3=O)c3c2OCO3)c1 (single isomer, unassigned) [Example 254, 6-(3-Chloro-6-(difluoromethyl)-2-fluorophenyl)-3-((R or S)-1-hydroxyethyl)-N-(1-((4-((1R,5S)-2-oxo-3-azabicyclo[3.1.0]hexan-3-yl)-[1,3]dioxolo[4,5-c]pyridin-7-yl)methyl)-1H-pyrazol-4-yl)pyrazine-2-carboxamide] |
| 15.2 | 2200 | CC(c1cnc(N2C[C@H]3C[C@H]3C2=O)nc1CO)n1cc(NC(=O)c2cncc(-c3c(C(F)F)ccc(Cl)c3F)n2)cn1 (stereo in doubt) [Example 169, 6-(3-Chloro-6-(difluoromethyl)-2-fluorophenyl)-N-(1-(1-(4-(hydroxymethyl)-2-(2-oxo-3-azabicyclo[3.1.0]hexan-3-yl)pyrimidin-5-yl)ethyl)-1H-pyrazol-4-yl)pyrazine-2-carboxamide] |
| 0.9 | > 10000 | Cc1nc([C@H](C)n2cc(NC(=O)c3nc(-c4c(C(F)F)ccc(Cl)c4F)cnc3C)cn2)ncc1N1C[C@H]2C[C@H]2C1=O [Example 1, 6-(3-Chloro-6-(difluoromethyl)-2-fluorophenyl)-3-methyl-N-(1-((S)-1-(4-methyl-5-((1R,5S)-2-oxo-3-azabicyclo[3.1.0]hexan-3-yl)pyrimidin-2-yl)ethyl)-1H-pyrazol-4-yl)pyrazine-2-carboxamide] |
| 11.9 | > 10000 | Cc1nc([C@@H](C)n2cc(NC(=O)c3nc(-c4c(C(F)F)ccc(Cl)c4F)cnc3C)cn2)ncc1N1C[C@H]2C[C@H]2C1=O [Example 2, 6-(3-Chloro-6-(difluoromethyl)-2-fluorophenyl)-3-methyl-N-(1-((R)-1-(4-methyl-5-((1R,5S)-2-oxo-3-azabicyclo[3.1.0]hexan-3-yl)pyrimidin-2-yl)ethyl)-1H-pyrazol-4-yl)pyrazine-2-carboxamide] |
| 1.9 | 527 | Cc1ncc(-c2c(C(F)F)ccc(Cl)c2F)nc1C(=O)Nc1cnn(Cc2cnc(N3C[C@H]4C[C@H]4C3=O)c(Cl)c2)c1 [Example 7, N-(1-((5-Chloro-6-((1R,5S)-2-oxo-3-azabicyclo[3.1.0]hexan-3-yl)pyridin-3-yl)methyl)-1H-pyrazol-4-yl)-6-(3-chloro-6-(difluoromethyl)-2-fluorophenyl)-3-methylpyrazine-2-carboxamide] |
| 11.9 | > 10000 | O=C(Nc1cnn(Cc2cnc(N3C[C@H]4C[C@H]4C3=O)c(Cl)c2)c1)c1cncc(-c2c(C(F)F)ccc(Cl)c2F)n1 [Example 8, N-(1-((5-Chloro-6-((1R,5S)-2-oxo-3-azabicyclo[3.1.0]hexan-3-yl)pyridin-3-yl)methyl)-1H-pyrazol-4-yl)-6-(3-chloro-6-(difluoromethyl)-2-fluorophenyl)pyrazine-2-carboxamide] |
| 1 | > 10000 | O=C(Nc1cnn(Cc2ccc(N3C[C@H]4C[C@H]4C3=O)nc2)c1)c1cncc(-c2c(C(F)F)ccc(Cl)c2F)n1 [Example 9, 6-(3-Chloro-6-(difluoromethyl)-2-fluorophenyl)-N-(1-((6-((1R,5S)-2-oxo-3-azabicyclo[3.1.0]hexan-3-yl)pyridin-3-yl)methyl)-1H-pyrazol-4-yl)pyrazine-2-carboxamide] |
| 38 | 7010 | Cc1ncc(-c2c(C(F)F)ccc(Cl)c2F)nc1C(=O)Nc1cnn(Cc2ccc(N3C[C@H]4C[C@H]4C3=O)nn2)c1 [Example 21, 6-(3-Chloro-6-(difluoromethyl)-2-fluorophenyl)-3-methyl-N-(1-((6-((1R,5S)-2-oxo-3-azabicyclo[3.1.0]hexan-3-yl)pyridazin-3-yl)methyl)-1H-pyrazol-4-yl)pyrazine-2-carboxamide] |
| 1.8 | 2730 | Cc1nc(N2C[C@H]3C[C@H]3C2=O)ncc1[C@H](C)n1cc(NC(=O)c2cncc(-c3c(C(F)F)ccc(Cl)c3F)n2)cn1 [Example 22, 6-(3-Chloro-6-(difluoromethyl)-2-fluorophenyl)-N-(1-((S)-1-(4-methyl-2-((1R,5S)-2-oxo-3-azabicyclo[3.1.0]hexan-3-yl)pyrimidin-5-yl)ethyl)-1H-pyrazol-4-yl)pyrazine-2-carboxamide] |
| 48.7 | 7600 | Cc1nc(N2C[C@H]3C[C@H]3C2=O)ncc1[C@@H](C)n1cc(NC(=O)c2cncc(-c3c(C(F)F)ccc(Cl)c3F)n2)cn1 [Example 23, 6-(3-Chloro-6-(difluoromethyl)-2-fluorophenyl)-N-(1-((R)-1-(4-methyl-2-((1R,5S)-2-oxo-3-azabicyclo[3.1.0]hexan-3-yl)pyrimidin-5-yl)ethyl)-1H-pyrazol-4-yl)pyrazine-2-carboxamide] |
| 10.5 | 3110 | Cc1nc(N2C[C@H]3C[C@H]3C2=O)ncc1Cn1cc(NC(=O)c2cncc(-c3c(C(F)F)ccc(Cl)c3F)n2)cn1 [Example 24, 6-(3-Chloro-6-(difluoromethyl)-2-fluorophenyl)-N-(1-((4-methyl-2-((1R,5S)-2-oxo-3-azabicyclo[3.1.0]hexan-3-yl)pyrimidin-5-yl)methyl)-1H-pyrazol-4-yl)pyrazine-2-carboxamide] |
| 27.7 | 4690 | O=C(Nc1cnn(Cc2cnc(N3C[C@H]4C[C@H]4C3=O)nc2)c1)c1cncc(-c2c(C(F)F)ccc(Cl)c2F)n1 [Example 25, 6-(3-Chloro-6-(difluoromethyl)-2-fluorophenyl)-N-(1-((2-((1R,5S)-2-oxo-3-azabicyclo-[3.1.0]hexan-3-yl)pyrimidin-5-yl)methyl)-1H-pyrazol-4-yl)pyrazine-2-carboxamide] |
| 2.5 | 875 | Cc1nc(N2C[C@H]3C[C@H]3C2=O)ncc1Cn1cc(NC(=O)c2nc(-c3c(C(F)F)ccc(Cl)c3F)cnc2C)cn1 [Example 33, 6-(3-Chloro-6-(difluoromethyl)-2-fluorophenyl)-3-methyl-N-(1-((4-methyl-2-((1R,5S)-2-oxo-3-azabicyclo[3.1.0]hexan-3-yl)pyrimidin-5-yl)methyl)-1H-pyrazol-4-yl)pyrazine-2-carboxamide] |
| 19.3 | 2890 | Cc1nc(N2C[C@@H]3C[C@@H]3C2=O)ncc1Cn1cc(NC(=O)c2nc(-c3c(C(F)F)ccc(Cl)c3F)cnc2C)cn1 [Example 34, 6-(3-Chloro-6-(difluoromethyl)-2-fluorophenyl)-3-methyl-N-(1-((4-methyl-2-((1S,5R)-2-oxo-3-azabicyclo[3.1.0]hexan-3-yl)pyrimidin-5-yl)methyl)-1H-pyrazol-4-yl)pyrazine-2-carboxamide] |
| 6.8 | 4940 | C=Cc1ncc(-c2c(C(F)F)ccc(Cl)c2F)nc1C(=O)Nc1cnn(Cc2cnc(N3C[C@H]4C[C@H]4C3=O)nc2C)c1 [Example 35, 6-(3-Chloro-6-(difluoromethyl)-2-fluorophenyl)-N-(1-((4-methyl-2-((1R,5S)-2-oxo-3-azabicyclo[3.1.0]hexan-3-yl)pyrimidin-5-yl)methyl)-1H-pyrazol-4-yl)-3-vinylpyrazine-2-carboxamide] |
| 3 | 609 | Cc1nc(N2C[C@H]3C[C@H]3C2=O)ncc1Cn1cc(NC(=O)c2nc(-c3c(OC(F)F)ccc(Cl)c3F)cnc2C)cn1 [Example 36, 6-(3-Chloro-6-(difluoromethoxy)-2-fluorophenyl)-3-methyl-N-(1-((4-methyl-2-((1R,5S)-2-oxo-3-azabicyclo[3.1.0]hexan-3-yl)pyrimidin-5-yl)methyl)-1H-pyrazol-4-yl)pyrazine-2-carboxamide] |
| 1.2 | 1270 | Cc1cc([C@H](C)n2cc(NC(=O)c3cncc(-c4c(C(F)F)ccc(Cl)c4F)n3)cn2)nnc1N1C[C@H]2C[C@H]2C1=O [Example 37, 6-(3-Chloro-6-(difluoromethyl)-2-fluorophenyl)-N-(1-((S)-1-(5-methyl-6-((1R,5S)-2-oxo-3-azabicyclo[3.1.0]hexan-3-yl)pyridazin-3-yl)ethyl)-1H-pyrazol-4-yl)pyrazine-2-carboxamide] |
| 6.2 | 742 | Cc1cc([C@@H](C)n2cc(NC(=O)c3cncc(-c4c(C(F)F)ccc(Cl)c4F)n3)cn2)nnc1N1C[C@H]2C[C@H]2C1=O [Example 38, 6-(3-Chloro-6-(difluoromethyl)-2-fluorophenyl)-N-(1-((R)-1-(5-methyl-6-((1R,5S)-2-oxo-3-azabicyclo[3.1.0]hexan-3-yl)pyridazin-3-yl)ethyl)-1H-pyrazol-4-yl)pyrazine-2-carboxamide] |
| 0.4 | 328 | Cc1cc([C@H](C)n2cc(NC(=O)c3nc(-c4c(OC(F)F)ccc(Cl)c4F)cnc3C)cn2)nnc1N1C[C@H]2C[C@H]2C1=O [Example 39, 6-(3-Chloro-6-(difluoromethoxy)-2-fluorophenyl)-3-methyl-N-(1-((S)-1-(5-methyl-6-((1R,5S)-2-oxo-3-azabigyclo[3.1.0]hexan-3-yl)pyridazin-3-yl)ethyl)-1H-pyrazol-4-yl)pyrazine-2-carboxamide] |
| 1.8 | 255 | Cc1cc([C@@H](C)n2cc(NC(=O)c3nc(-c4c(OC(F)F)ccc(Cl)c4F)cnc3C)cn2)nnc1N1C[C@H]2C[C@H]2C1=O [Example 40, 6-(3-Chloro-6-(difluoromethoxy)-2-fluorophenyl)-3-methyl-N-(1-((R)-1-(5-methyl-6-((1R,5S)-2-oxo-3-azabicyclo[3.1.0]hexan-3-yl)pyridazin-3-yl)ethyl)-1H-pyrazol-4-yl)pyrazine-2-carboxamide] |
